In patent US11535610B2, “Acid addition salts of benzimidazole derivative” (HK INNO.N CORPORATION, priority 2016, dated 2022):
Like-named read-outs stand apart in the source and are kept apart here.

Tests used:
[1] = Comparative test on liquid-phase stability (HPLC, degradation product of formula 4); type: physicochemical; conditions: for Concentration (%) of degradation product (compound of the formula 4), Initial / Concentration (%) of degradation product (compound of the formula 4), 1 day (24 hours) elapsed: 20 mg/ml
[2] = Comparative test on solid-phase stability (Karl Fischer, HPLC); type: physicochemical; conditions: for Total impurities (%), 1 month elapsed / Total impurities (%), Initial: HPLC area %; for Total impurities (%), 1 month elapsed / Moisture (%), 1 month elapsed: PE-bag, 75% RH, one month; for Moisture (%), 1 month elapsed / Moisture (%), Initial: Karl Fischer
[3] = Comparative test on precipitation stability in pH 6.8 buffer; type: physicochemical; conditions: 10 mg/ml in buffer solution of pH 6.8, stored at 37° C. for 24 hours
[4] = Water solubility at room temperature of 1:1 co-crystals of the compound of the formula 1 with co-crystal formers; conditions: co-crystal at 1:1 molar ratio with compound of the formula 1
[5] = Comparative test on solubility of amorphous acid addition salts (supersaturation method); conditions: room temperature, solubility of acid addition salt per se, not converted to free base; for solubility: water, thermodynamic from solid, Water solubility

Molecule	Concentration of degradation products (%), Initial [2] [%]	Total impurities (%), 1 month elapsed [2] [%]	Total impurities (%), Initial [2] [%]	Moisture (%), 1 month elapsed [2] [%]	Moisture (%), Initial [2] [%]	Soil precipitation or not [3]	Water-solubility [4] [µg/mL]	further results
CC(C)[C@H](N)C(=O)O [L-Valine]	–	–	–	–	–	–	3000	–
NCCCC[C@H](N)C(=O)O [L-Lysine]	–	–	–	–	–	–	8000	–
CC(C)C[C@H](N)C(=O)O [L-leucine]	–	–	–	–	–	–	12000	–
C[C@H](N)C(=O)O [L-Alanine]	–	–	–	–	–	–	4000	–
Cc1nc2c(OC3CCOc4cc(F)cc(F)c43)cc(C(=O)N(C)C)cc2[nH]1 (centres unmarked) [Amorphous free base]	–	–	–	–	–	–	–	solubility [5]: 3000 µg/mL
Cc1ccc(S(=O)(=O)O)cc1 [p-toluenesulfonic acid]	–	–	–	–	–	–	–	Water solubility [5]: 27000 µg/mL
O=S(=O)(O)c1cccc2c(S(=O)(=O)O)cccc12 [1.5-naphinalenedisulfonic acid]	–	–	–	–	–	–	–	Water solubility [5]: 2500 µg/mL

The next lines start with results.

Concentration of degradation products (%), Initial [2] [%]	Total impurities (%), 1 month elapsed [2] [%]	Total impurities (%), Initial [2] [%]	Moisture (%), 1 month elapsed [2] [%]	Moisture (%), Initial [2] [%]	Soil precipitation or not [3]	Molecule	Water-solubility [4] [µg/mL]	further results
0.09	0.43	0.14	0.3	0.1	Precipitated	Fumaric acid	–	physical state of the solution (homogenous liquid-phase state or gel) ([1]; 20 mg/ml in purified water, stirred at 40° C.): formed a sticky gel; Concentration of degradation products (%), 1 month elapsed [2]: 0.12%; Soil precipitation or not ([3]; listed as fumaric acid): a solid was precipitated
0.02	0.07	0.07	0.1	0.1	a homogenous solution was maintained	O=C1CC[C@@H](C(=O)O)N1 [L-pyroglutamic acid]	–	Concentration (%) of degradation product (compound of the formula 4), Initial [1]: 0.02%; Concentration (%) of degradation product (compound of the formula 4), 1 day (24 hours) elapsed [1]: 0.05%; Concentration of degradation products (%), 1 month elapsed ([2]; 1 month): 0.02%
0.04	0.06	0.06	0.1	0.1	a homogenous solution was maintained	Cc1nc2c(O[C@H]3CCOc4cc(F)cc(F)c43)cc(C(=O)N(C)C)cc2[nH]1	–	Concentration (%) of degradation product (compound of the formula 4), Initial [1]: 0.03%; Concentration (%) of degradation product (compound of the formula 4), 1 day (24 hours) elapsed [1]: 0.07%; Concentration of degradation products (%), 1 month elapsed ([2]; 1 month): 0.04%; solubility [5]: ≥ 50000 µg/mL
